Data: patent US11685732B2, “MYST family histone acetyltransferase inhibitors” (Epizyme, Inc., priority 2017, dated 2023)
Like-named read-outs stand apart in the source and are kept apart here.

What was measured:
KAT-7 = KAT-7 (Homo sapiens (Human), UniProt O95251); assay: KAT-7 biochemical inhibition assay (SAMDI mass spectrometry)
Procedure: (§1) KAT-7. Enzyme assay buffer was 50 mM Tris pH 8.0, 0.002% Tween20, 0.005% bovine skin gelatin, and 1 mM dithiothreitol (DTT). For determination of IC50 values, compounds were serially diluted with 2% (v/v) DMSO in the final reaction, pre-incubating each dilution of each compound with 40 μL of assay buffer containing KAT-7 enzyme (6 nM final concentration). 10 μL of assay buffer containing 1 μM peptide substrate and 2 μM acetyl coenzyme A (final concentrations) was added. Reactions (50 μL total) were then carried out at 25° C. for 120 minutes. Reactions were terminated by the addition of 0.5% formic acid (final concentration), and a sample of each reaction was analyzed by SAMDI Tech, Inc. (Chicago, Ill.) using self-assembled monolayer desorption/ionization time-of-flight mass spectrometry (Mrksich, M. (2008) Mass spectrometry of self-assembled monolayers: a new tool for molecular surface science. ACS Nano 2, 7-18).

KAT-6A = KAT-6A (Homo sapiens (Human), UniProt Q92794); assay: KAT-6A biochemical inhibition assay (SAMDI mass spectrometry)
Procedure: as §1, with “KAT-6A. Enzyme” for “KAT-7. Enzyme”, “containing KAT-6A” for “containing KAT-7”, “enzyme (12.5” for “enzyme (6”, “and 1” for “and 2”, “for 90” for “for 120”

KAT-5 = KAT-5 (Homo sapiens (Human), UniProt Q92993); assay: KAT-5 biochemical inhibition assay (SAMDI mass spectrometry)
Procedure: as §1, with “KAT-5. Enzyme” for “KAT-7. Enzyme”, “containing KAT-5” for “containing KAT-7”, “enzyme (9” for “enzyme (6”, “and 0.5” for “and 2”, “for 90” for “for 120”

Chain of KAT-6A (Q92794 other isoform, or with tags, fused parts or gaps): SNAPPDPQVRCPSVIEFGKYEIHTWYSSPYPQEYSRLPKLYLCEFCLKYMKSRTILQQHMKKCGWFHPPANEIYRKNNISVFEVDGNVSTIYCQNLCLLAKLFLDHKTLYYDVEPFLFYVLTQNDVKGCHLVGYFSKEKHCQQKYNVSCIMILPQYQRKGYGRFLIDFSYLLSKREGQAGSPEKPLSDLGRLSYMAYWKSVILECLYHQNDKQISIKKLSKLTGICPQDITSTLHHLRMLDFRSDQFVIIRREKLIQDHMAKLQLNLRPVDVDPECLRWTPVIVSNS
Chain of KAT-7 (O95251 other isoform, or with tags, fused parts or gaps): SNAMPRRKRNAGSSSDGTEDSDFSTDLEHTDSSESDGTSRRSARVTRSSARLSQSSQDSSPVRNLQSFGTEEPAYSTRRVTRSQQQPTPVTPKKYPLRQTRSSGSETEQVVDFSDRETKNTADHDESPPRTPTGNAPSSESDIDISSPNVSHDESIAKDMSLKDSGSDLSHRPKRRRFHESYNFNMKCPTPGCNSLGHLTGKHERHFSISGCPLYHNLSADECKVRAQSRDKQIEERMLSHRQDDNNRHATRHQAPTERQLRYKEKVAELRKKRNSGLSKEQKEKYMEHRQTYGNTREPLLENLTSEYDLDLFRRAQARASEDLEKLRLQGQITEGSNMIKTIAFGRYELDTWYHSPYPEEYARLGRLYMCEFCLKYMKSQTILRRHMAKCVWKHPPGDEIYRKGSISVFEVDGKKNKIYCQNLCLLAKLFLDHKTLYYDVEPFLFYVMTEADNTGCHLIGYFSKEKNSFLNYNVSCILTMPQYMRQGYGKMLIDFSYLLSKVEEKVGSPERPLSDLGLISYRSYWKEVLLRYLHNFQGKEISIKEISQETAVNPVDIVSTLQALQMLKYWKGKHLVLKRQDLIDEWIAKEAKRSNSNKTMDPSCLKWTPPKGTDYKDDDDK
Chain of KAT-5 (Q92993 other isoform, or with tags, fused parts or gaps): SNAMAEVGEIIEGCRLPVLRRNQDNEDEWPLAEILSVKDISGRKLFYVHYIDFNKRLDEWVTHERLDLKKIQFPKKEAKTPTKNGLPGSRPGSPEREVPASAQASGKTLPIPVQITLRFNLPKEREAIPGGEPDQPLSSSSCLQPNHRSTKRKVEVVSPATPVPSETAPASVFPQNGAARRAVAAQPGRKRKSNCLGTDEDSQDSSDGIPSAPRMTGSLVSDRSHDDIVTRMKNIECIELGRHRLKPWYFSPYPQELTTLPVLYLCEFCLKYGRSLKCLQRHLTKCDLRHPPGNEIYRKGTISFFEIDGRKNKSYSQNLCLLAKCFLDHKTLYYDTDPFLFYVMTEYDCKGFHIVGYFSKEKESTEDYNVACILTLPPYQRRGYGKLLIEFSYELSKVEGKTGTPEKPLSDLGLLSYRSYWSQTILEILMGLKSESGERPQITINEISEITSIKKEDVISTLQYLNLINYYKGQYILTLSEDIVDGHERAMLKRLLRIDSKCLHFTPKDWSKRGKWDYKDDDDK

Structure (SMILES) | IC50 (KAT-7; Table 5) [µM] | IC50 (KAT-6A; Table 5) [µM] | IC50 (KAT-5; Table 5) [µM] | IC50 (KAT-7) [µM] | IC50 (KAT-6A) [µM] | IC50 (KAT-5) [µM]
CNCCCS(=O)(=O)NNC(=O)c1cc(-c2cccc(C)c2)ccc1F [Compound A-26] | > 100 | > 100 | > 100 | – | – | –
Cn1cnc(-c2cc(C(=O)NNS(=O)(=O)CC3CCCCC3)c(F)c(Cl)c2N)c1 [Compound I-476] | – | – | – | < 10 | < 10 | < 10
Cc1cc(-c2cccc(F)c2)cc(C(=O)NNS(=O)(=O)c2cccc(O)c2)c1F [Compound A-28] | ≤ 1 | ≤ 1 | ≤ 1 | – | – | –
Cn1cnc(-c2cc(C(=O)NNS(=O)(=O)CC3CCCCC3)c(F)c(Cl)c2N(C(=O)OC(C)(C)C)C(=O)OC(C)(C)C)c1 [Compound I-475] | – | – | – | 50 to 100 | > 100 | > 100
CNCCCS(=O)(=O)NNC(=O)c1cc(-c2cccc(C)c2)cc(Cl)c1F [Compound A-27] | > 100 | > 100 | > 100 | – | – | –
Cc1cccc(-c2cc(Cl)c(F)c(C(=O)NNS(=O)(=O)C3CCC(N)C3)c2)c1 (stereo not shown) [Compound A-20] | 10 to 50 | > 100 | > 100 | – | – | –
Cc1cccc(-c2cc(Cl)c(F)c(C(=O)NNS(=O)(=O)C(C)C3CCCNC3)c2)c1 (stereo not shown) [Compound A-25] | 10 to 50 | > 100 | > 100 | – | – | –
CN(CC(F)(F)F)C1CCCC(CS(=O)(=O)NNC(=O)c2cc(-c3cn(C)cn3)cc(Cl)c2F)C1 (stereo not shown) [Compound I-473] | – | – | – | < 10 | 10 to 50 | < 10
O=C(NNS(=O)(=O)c1cccc(O)c1)c1cc(-c2ccccc2)cc(Cl)c1F [Compound A-31] | ≤ 1 | ≤ 1 | ≤ 1 | – | – | –
CCc1cc(O)cc(S(=O)(=O)NNC(=O)c2cc(-c3ccccn3)cc(Cl)c2F)c1 [Compound I-483] | – | – | – | < 10 | < 10 | < 10
COc1cccc(S(=O)(=O)NNC(=O)c2cc(-c3ccccc3)cc(Cl)c2F)c1 [Compound A-16] | ≤ 1 | ≤ 1 | ≤ 10 | – | – | –
Cc1cccc(-c2cc(Cl)c(F)c(C(=O)NNS(=O)(=O)CC3CCCCNC3)c2)c1 (stereo not shown) [Compound A-21] | ≤ 10 | > 100 | > 100 | – | – | –
Cc1cccc(-c2cc(Cl)c(F)c(C(=O)NNS(=O)(=O)CC3CN(C(=O)OC(C)(C)C)CCN3C(=O)OC(C)(C)C)c2)c1 (stereo not shown) [Compound A-14] | 10 to 50 | > 100 | > 100 | – | – | –
Cn1cnc(-c2cc(Cl)c(F)c(C(=O)NNS(=O)(=O)Cc3nn(C)cc3Cl)c2)c1 [Compound I-474] | – | – | – | < 10 | < 10 | < 10
Cn1cnc(-c2cc(Cl)c(F)c(C(=O)NNS(=O)(=O)C[C@H]3CC[C@H](N(C)CC(F)(F)F)CC3)c2)c1 [Compound I-471] | – | – | – | < 10 | < 10 | < 10
Cc1cccc(-c2cc(Cl)c(F)c(C(=O)NNS(=O)(=O)CC3CNCCN3C)c2)c1 (stereo not shown) [Compound A-32] | 10 to 50 | > 100 | > 100 | – | – | –
O=C(NNS(=O)(=O)c1cccc(O)c1)c1cc(-c2ccccc2)cc(F)c1F [Compound A-29] | ≤ 1 | ≤ 1 | ≤ 10 | – | – | –
Cn1cnc(-c2cc(Cl)c(F)c(C(=O)NNS(=O)(=O)CC3CN(C(=O)OC(C)(C)C)CCN3C(=O)OC(C)(C)C)c2)c1 (stereo not shown) [Compound I-469] | – | – | – | – | > 100 | > 100
Cc1cccc(-c2cc(Cl)c(F)c(C(=O)NNS(=O)(=O)CC3CCCCN(C(=O)OC(C)(C)C)C3)c2)c1 (stereo not shown) [Compound A-22] | ≤ 1 | 10 to 50 | 10 to 50 | – | – | –
Cc1cccc(-c2cc(Cl)c(F)c(C(=O)NNS(=O)(=O)CC3CN(C)CCN3)c2)c1 (stereo not shown) [Compound A-24] | ≤ 10 | 10 to 50 | 50 to 100 | – | – | –
Cc1cccc(-c2cc(Cl)c(F)c(C(=O)NNS(=O)(=O)CC3CNCCN3)c2)c1 (stereo not shown) [Compound A-15] | ≤ 10 | > 100 | > 100 | – | – | –
CC(=O)NCc1c(-c2cn(C)cn2)cc(C(=O)NNS(=O)(=O)CC2CCCCC2)c(F)c1Cl [Compound I-470] | – | – | – | – | 10 to 50 | > 100
